We go through 17 compounds from patent US11974997B2, “RORgamma modulators and uses thereof” (Genfit, priority 2017, dated 2024).

Structures are written as SMILES.

The target of assay [1] is T1, RORγt ligand-binding domain (RORγt-LBD) (Homo sapiens, UniProt P51449).
T1 construct: 20 nM recombinantly expressed RORγ-LBD fused to GST
T1 sequence (P51449 269-508 limits assumed): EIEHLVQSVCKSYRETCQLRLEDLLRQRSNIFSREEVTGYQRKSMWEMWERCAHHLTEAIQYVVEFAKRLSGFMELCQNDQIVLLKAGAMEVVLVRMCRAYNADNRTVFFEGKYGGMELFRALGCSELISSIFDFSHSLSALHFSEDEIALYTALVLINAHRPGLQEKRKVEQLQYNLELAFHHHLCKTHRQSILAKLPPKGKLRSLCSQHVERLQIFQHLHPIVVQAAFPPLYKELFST
Put plainly: Time-resolved FRET (TR-FRET) RORγt coactivator assay. It is filed as biochemical. To be noted: GST-RORγ-LBD, biotinylated RIP140 peptide, 2 hours; read-out: IC50, coactivator displacement. From the text:
Time-resolved FRET (TR-FRET) RORγt coactivator assay was used to identify RORγ modulator compounds with ligand-dependent coactivator displacement. The assay uses a d2-labeled anti-GST antibody, synthetic N-terminally biotinylated peptide which is derived from nuclear receptor coactivator protein RIP140, and a RORγt ligand-binding domain (RORγt-LBD) that is tagged with glutathione-S-transferase (GST). The influence of compounds on the RORγ-peptide interaction relies on the binding dependent energy transfer from a donor to an acceptor fluorophor attached to the binding partner of interest. […] For reduction of background from compound fluorescence, TR-FRET method makes use of generic fluorophore labels and time resolved detection.
The assays were done in a final volume of 20 μl in a 384 well plate in a CHAPS buffer (2 mM CHAPS; 1 mM DTT, 2 mM EDTA; 0.1% BSA), containing 20 nM recombinantly expressed RORγ-LBD fused to GST, 30 nM N-terminally biotinylated peptide, 1 nM streptavidin-terbium conjugate and 20 nM d2 labeled-anti-GST. Test compounds were diluted using 10 mM stock solution. The range of the final compound concentrations used in this test was from 0.3 nM to 30 μM (logarithmic scale). DMSO content of the samples was kept at 1%. The assay was equilibrated for 2 hours in the dark at room temperature in 384 well plates (Falcon). The signal was detected by an Ultra384 reader (TECAN). […] Compounds that promote coactivator displacement induce a concentration-dependent decrease in time-resolved fluorescent signal. Data were collected and analyzed using GraphPad Prism software (GraphPad Software V5.02, San Diego California USA). IC50 in μM and Emax in % were reported for each compound.

Another assay addresses T2, human RORγt (Homo sapiens, UniProt P51449).
T2 construct: the full-length cDNA of human RORγt; expressed in transfected cells; host or cells: COS-7 (monkey kidney)
T2 sequence (P51449 1-497 isoform P51449-2): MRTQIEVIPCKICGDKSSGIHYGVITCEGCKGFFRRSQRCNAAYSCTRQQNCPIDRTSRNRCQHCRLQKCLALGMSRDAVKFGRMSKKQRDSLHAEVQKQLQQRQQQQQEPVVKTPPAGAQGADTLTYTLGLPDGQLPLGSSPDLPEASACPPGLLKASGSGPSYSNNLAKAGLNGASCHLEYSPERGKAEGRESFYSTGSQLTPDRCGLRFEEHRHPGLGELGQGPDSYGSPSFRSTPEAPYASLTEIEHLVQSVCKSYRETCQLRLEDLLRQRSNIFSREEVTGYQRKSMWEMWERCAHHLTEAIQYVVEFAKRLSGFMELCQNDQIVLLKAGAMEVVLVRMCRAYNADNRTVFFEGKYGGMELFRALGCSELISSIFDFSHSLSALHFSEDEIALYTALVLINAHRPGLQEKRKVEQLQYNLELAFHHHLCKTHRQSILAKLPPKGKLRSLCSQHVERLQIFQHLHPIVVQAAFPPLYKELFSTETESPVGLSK
As to the kind of experiment: RORE Luciferase/RORγt transactivation assay. It is filed as cell-based. The settings on record: COS-7 cells, human IL-17 promoter reporter + RORγt plasmid, 20 h; read-out: IC50, inhibition of RORγt activity (luciferase). The procedure: It is well known that RORγ binds to a conserved non-coding sequence (CNS) enhancer element in the IL-17 promoter.
Culture medium was changed every 2 days.
The 4.3 Kb human IL-17 promoter containing the RORγ-specific CNS enhancer element was PCR amplified from human genomic DNA and cloned into a pGL3-TKLuc2Cp reporter plasmid.
The luciferase reporter plasmid and the RORγt overexpression plasmid were transfected into COS-7 cell line using 4 μLJetPEITM/μg of DNA. Briefly, 150 ng of DNA (ration ½ between RORE-Tk Luc2Cp and cDNA RORγt or the empty vector for the negative control) was served to transfect adherent COS-7 cells in a […] culture flask, in complete medium (see cos-7 cell line culture).
Cells were then detached (using trypsin) and washed by centrifugation at 300 g for 10 minutes. Cell pellet was resuspended in serum free/phenol red free DMEM and seeded in 384 well plates at a density of 10000 cells/well and then incubated for 4h at 37° C.
Compounds were dissolved in 100% DMSO to obtain 10 mM stock solutions. For each compound, test concentrations were diluted in serum free/phenol red free DMEM using the Genesis Freedom 200™ (TECAN) and added to the cells to obtain a 0.3% DMSO final concentration (in a final volume of 40 μL per well).
The luciferase activity was then measured with 40 μL/well steady-Glo Luciferase assay system (Promega, Madison, WI) and after incubation at room temperature for 30 minutes. The luminescence was estimated using the Ultra384 reader (TECAN). Data were collected and analyzed using GraphPad Prism software (GraphPad Software V5.02, San Diego California USA). IC50 in μM and Emax in % were reported for each compound.

The term IC50 denotes the midpoint of a concentration-inhibition curve. `CC(=O)C1CCN(c2ncc(CC(=O)NC(c3ccc(C)o3)c3ccc(C)cc3C)cn2)CC1` (stereo not shown) [Cpd.6, 2-[2-(4-acetylpiperidin-1-yl)pyrimidin-5-yl]-N-[(2,4-dimethylphenyl)(5-methylfuran-2-yl)methyl]acetamide]: the IC50 in assay [1] fell in the range of 100 to 1000 nM; on human RORγt it was 1000 to 10000 nM.

With `Cc1ccc(C(NC(=O)Cc2ccc(N3CCN(C(=O)OC(C)(C)C)CC3)nc2)c2ccc(C)o2)c(N2CCCCC2)c1` (stereo not shown) [Cpd.3, tert-butyl 4-{5-[({[4-methyl-2-(piperidin-1-yl)phenyl](5-methylfuran-2-yl)methyl}carbamoyl)methyl]pyridin-2-yl}piperazine-1-carboxylate], the IC50 (in assay [1]; at human RORγt) was 100 to 1000 nM throughout.

On to `Cc1ccc(C(NC(=O)Cc2cnc(N3CCC(C(=O)O)CC3)nc2)c2ccc(C)o2)c(N2CCCCC2)c1` (stereo not shown) [Cpd.9, 1-{5-[({[4-methyl-2-(piperidin-1-yl)phenyl](5-methylfuran-2-yl)methyl}carbamoyl)methyl]pyrimidin-2-yl}piperidine-4-carboxylic acid], for which the IC50 in assay [1] was less than 100 nM; on human RORγt, 1000 to 10000 nM.

For `CC(=O)C1CCN(c2ncc(CC(=O)NC(c3ccc(C)o3)c3ccc(C)cc3N3CCCCC3)cn2)CC1` (stereo not shown) [Cpd.8, 2-[2-(4-acetylpiperidin-1-yl)pyrimidin-5-yl]-N-{[4-methyl-2-(piperidin-1-yl)phenyl](5-methylfuran-2-yl)methyl}acetamide], the IC50 (in assay [1]; on human RORγt) was 100 to 1000 nM each time.

Consider `Cc1ccc(C(NC(=O)Cc2ccc(N3CCN(S(C)(=O)=O)CC3)nc2)c2ccc(C)o2)c(N2CCCCC2)c1` (stereo not shown) [Cpd.1, 2-[6-(4-methanesulfonylpiperazin-1-yl)pyridin-3-yl]-N-{[4-methyl-2-(piperidin-1-yl)phenyl](5-methylfuran-2-yl)methyl}acetamide], for which the IC50 in assay [1] is less than 100 nM; at human RORγt, 100 to 1000 nM.

Consider `COC(=O)C1CCN(c2ncc(CC(=O)NC(c3ccc(C)o3)c3ccc(C)cc3N3CCCCC3)cn2)CC1` (stereo not shown) [Cpd.7, methyl 1-{5-[({[4-methyl-2-(piperidin-1-yl)phenyl](5-methylfuran-2-yl)methyl}carbamoyl)methyl]pyrimidin-2-yl}piperidine-4-carboxylate], for which the values for the IC50 (in assay [1]; at human RORγt) were 100 to 1000 nM and 1000 to 10000 nM, respectively.

Regarding `CC(=O)N1CCN(c2ncc(C3(C(=O)NC(c4ccc(C)o4)c4ccc(C)cc4N4CCCCC4)CC3)cn2)CC1` (stereo not shown) [Cpd.11, 1-[2-(4-acetylpiperazin-1-yl)pyrimidin-5-yl]-N-{[4-methyl-2-(piperidin-1-yl)phenyl](5-methylfuran-2-yl)methyl}cyclopropane-1-carboxamide], the IC50 (in assay [1]; on human RORγt) was less than 100 nM in each case.

`Cc1ccc(C(NC(=O)Cc2cccc(N3CCN(C(=O)C(F)(F)F)CC3)n2)c2ccc(C)o2)c(N2CCCCC2)c1` (stereo not shown) [Cpd.16, N-{[4-methyl-2-(piperidin-1-yl)phenyl](5-methylfuran-2-yl)methyl}-2-{6-[4-(trifluoroacetyl)piperazin-1-yl]pyridin-2-yl}acetamide]: the IC50 (in assay [1]; on human RORγt) was 100 to 1000 nM in each case.

On to `Cc1ccc(C(NC(=O)Cc2cnc(N3CCN(S(C)(=O)=O)CC3)nc2)c2ccc(C)o2)c(N2CCCCC2)c1` (stereo not shown) [Cpd.4, 2-[2-(4-methanesulfonylpiperazin-1-yl)pyrimidin-5-yl]-N-{[4-methyl-2-(piperidin-1-yl)phenyl](5-methylfuran-2-yl)methyl}acetamide], for which the IC50 in assay [1] was less than 100 nM; on human RORγt, 100 to 1000 nM.

Consider `CC(=O)N1CCN(c2nccc(CC(=O)NC(c3ccc(C)o3)c3ccc(C)cc3N3CCCCC3)n2)CC1` (stereo not shown) [Cpd.15, 2-[2-(4-acetylpiperazin-1-yl)pyrimidin-4-yl]-N-{[4-methyl-2-(piperidin-1-yl)phenyl](5-methylfuran-2-yl)methyl}acetamide], for which the IC50 in assay [1] is less than 100 nM; on human RORγt it was 100 to 1000 nM.

Regarding `Cc1ccc(C(NC(=O)Cc2cnc(N3CCC(S(C)(=O)=O)CC3)nc2)c2ccc(C)o2)c(N2CCCCC2)c1` (stereo not shown) [Cpd.5, 2-[2-(4-methanesulfonylpiperidin-1-yl)pyrimidin-5-yl]-N-{[4-methyl-2-(piperidin-1-yl)phenyl](5-methylfuran-2-yl)methyl}acetamide], the values for the IC50 (in assay [1]; on human RORγt) were less than 100 nM and 100 to 1000 nM, respectively.

On to `CC(=O)N1CCN(c2cncc(CC(=O)NC(c3ccc(C)o3)c3ccc(C)cc3N3CCCCC3)c2)CC1` (stereo not shown) [Cpd.14, 2-[5-(4-acetylpiperazin-1-yl)pyridin-3-yl]-N-{[4-methyl-2-(piperidin-1-yl)phenyl](5-methylfuran-2-yl)methyl}acetamide], for which the results for the IC50 (in assay [1]; on human RORγt) were less than 100 nM and 100 to 1000 nM, respectively.

For the compound `Cc1ccc(C(NC(=O)Cc2ccc(N3CCC(S(C)(=O)=O)CC3)nc2)c2ccc(C)o2)c(N2CCCCC2)c1` (stereo not shown) [Cpd.2, 2-[6-(4-methanesulfonylpiperidin-1-yl)pyridin-3-yl]-N-{[4-methyl-2-(piperidin-1-yl)phenyl](5-methylfuran-2-yl)methyl}acetamide], the values for the IC50 (in assay [1]; at human RORγt) were less than 100 nM and 100 to 1000 nM, respectively.

With `Cc1ccc(C(NC(=O)Cc2cnc(N3CCCC(S(C)(=O)=O)C3)nc2)c2ccc(C)o2)c(N2CCCCC2)c1` (stereo not shown) [Cpd.17, 2-[2-(3-methanesulfonylpiperidin-1-yl)pyrimidin-5-yl]-N-{[4-methyl-2-(piperidin-1-yl)phenyl](5-methylfuran-2-yl)methyl}acetamide], the IC50 (in assay [1]; at human RORγt) was less than 100 nM throughout.

On to `Cc1ccc(C(NC(=O)Cc2ccc(N3CCNCC3)nc2)c2ccc(C)o2)c(N2CCCCC2)c1` (stereo not shown) [Cpd.10, N-{[4-methyl-2-(piperidin-1-yl)phenyl](5-methylfuran-2-yl)methyl}-2-[6-(piperazin-1-yl)pyridin-3-yl]acetamide], for which the IC50 is less than 100 nM in assay [1] and 100 to 1000 nM at human RORγt.

In the case of `CC(=O)N1CCN(c2cccc(CC(=O)NC(c3ccc(C)o3)c3ccc(C)cc3N3CCCCC3)n2)CC1` (stereo not shown) [Cpd.12, 2-[6-(4-acetylpiperazin-1-yl)pyridin-2-yl]-N-{[4-methyl-2-(piperidin-1-yl)phenyl](5-methylfuran-2-yl)methyl}acetamide], the IC50 (in assay [1]; on human RORγt) was less than 100 nM each time.

Take `CC(=O)N1CCN(c2ncc(CC(=O)NC(c3ccc(C)o3)c3ccc(C)cc3N3CCCCC3)cn2)CC1` (stereo not shown) [Cpd.13, 2-[2-(4-acetylpiperazin-1-yl)pyrimidin-5-yl]-N-{[4-methyl-2-(piperidin-1-yl)phenyl](5-methylfuran-2-yl)methyl}acetamide]: the IC50 in assay [1] is less than 100 nM; at human RORγt it was 100 to 1000 nM.
